Assay results taken from patent US20260248922A1, “TREATMENT OF SIGNS, SYMPTOMS AND/OR COMPLICATIONS OF VIRAL, BACTERIAL, PROTOZOAL, AND/OR FUNGAL INFECTIONS BY HIGH PENETRATION PRODRUGS” (priority 2022, published 2026).
Read-outs that look alike come from different tables or passages of the source.

How the values were obtained:
[1] = rabbit
[2] = system: paw edema; assay: Antiinflammatory activity, carrageenan paw edema in rats; assay type: in vivo, Wistar Rats; details: topical, 100 mg/kg
[3] = system: LPS-induced fever; assay: Antipyretic activity, fever induced by LPS in rats; assay type: in vivo, Sprague Dawley rats
Protocol: The body temperature of rats was taken at 0 (2 hours after the challenge), 90 min, 180 min, and 270 min after the administration of the test compounds.

[4] = system: H1N1 virus; assay: H1N1 virus infection mouse model (Example 66); assay type: in vivo, mice; details: transdermal once a day
Protocol: A total of seventy mice (7 groups, 10/group) were used in this study. At day 0, mice were anesthetized with isoflurane and held in a dorsal recumbent position for administration of 0.1×TCID50/mouse virus (new batch) by internasal instillation, from day 2 post challenge, mice were received a single dose of different concentrations of test article or vehicle control once a day up to 15th day with dose initiation on day 2 post challenge. Group 1 served as an infected control group and was treated with vehicle (35% ethanol). […] Mice were observed following viral challenge for clinical signs of illness including body weights, health score, morbidity and mortality.
Lung lesions and peribronchiolitis of all deceased and surviving animals were characterized (Table 9).

[5] = system: H1N1 virus; assay: H1N1 virus infection mouse model (Example 67); assay type: in vivo, mice; details: transdermal once a day
Protocol: A total of seventy mice (7 groups, 10/group) were used in this study. At day 0, mice were anesthetized with isoflurane and held in a dorsal recumbent position for administration of 0.1×TCID50/mouse virus (new batch) by internasal instillation, from day 2 post challenge, mice were received a single dose of different concentrations of test article or vehicle control once a day up to 15th day with dose initiation on day 2 post challenge. Group 1 served as an infected control group and was treated with vehicle (35% ethanol). 7% of (pyrrolidin-2-yl)methyl 2-[(2,3-dimethylphenyl)amino]benzoate hydrochloride in 35% ethanol (low dose: 25.0 mg/kg, group 2, mid dose: 50.1 mg/kg, group 3, and high dose: 100.1 mg/kg, group 4) and 7% of (pyrrolidin-2-yl)methyl α-methyl-4-(2-thienylcarbonyl)benzeneacetate hydrochloride in 35% ethanol (low dose: 24.9 mg/kg, group 5, mid dose: 49.8 mg/kg, group 6, and high dose: 99.6 mg/kg, group 7) and vehicle (35% ethanol) were given by transdermal on the back of animal in an area of 2 cm×5 cm, 1.5 cm×3.5 cm, or 1 cm×2.5 cm for high, middle or low dose. Mice were observed following viral challenge for clinical signs of illness including body weights, health score, morbidity and mortality.
Lung lesions and peribronchiolitis of all deceased and surviving animals were characterized (Table 11).

[6] = system: H1N1 virus; assay: H1N1 virus infection mouse model (Example 68); assay type: in vivo, mice; details: transdermal once a day
Protocol: A total of seventy mice (7 groups, 10/group) were used in this study. At day 0, mice were anesthetized with isoflurane and held in a dorsal recumbent position for administration of 0.1×TCID50/mouse virus (new batch) by internasal instillation, from day 2 post challenge, mice were received a single dose of different concentrations of test article or vehicle control once a day up to 15th day with dose initiation on day 2 post challenge. Group 1 served as an infected control group and was treated with vehicle (35% ethanol). 7% (pyrrolidin-2-yl)methyl 5-(2,4-difluorophenyl) salicylate hydrochloride in 35% ethanol (low dose: 25.0 mg/kg, group 2, mid dose: 49.9 mg/kg, group 3, and high dose: 99.8 mg/kg, group 4) and 7% (pyrrolidin-2-yl)methyl 5-(2,4-difluorophenyl) acetylsalicylate hydrochloride in 35% ethanol (low dose: 24.7 mg/kg, group 5, mid dose: 49.4 mg/kg, group 6, and high dose: 98.7 mg/kg, group 7) and vehicle (35% ethanol) were given by transdermal on the back of animal in an area of 2 cm×5 cm, 1.5 cm×3.5 cm, or 1 cm×2.5 cm for high, middle or low dose. Mice were observed following viral challenge for clinical signs of illness including body weights, health score, morbidity and mortality.
Lung lesions and peribronchiolitis of all deceased and surviving animals were characterized (Table 13).

Structure (SMILES) | The cumulative amount of test compounds ([1]; 1 h) [mg] | The cumulative amount of test compounds ([1]; 2 h) [mg] | The cumulative amount of test compounds ([1]; 4 h) [mg] | The cumulative amount of test compounds ([1]; 8 h) [mg] | also measured
CC(C)c1ccc2c(c1)c(SC(C)(C)C)c(CC(C)(C)C(=O)O)n2Cc1ccc(Cl)cc1 [Parent drug-2] | 0.001 | 0.001 | 0.001 | 0.003 | –
CN(C)C(=O)CCS[C@H](SCCC(=O)O)c1cccc(/C=C/c2ccc3ccc(Cl)cc3n2)c1 [Parent drug-4] | 0.001 | 0.001 | 0.001 | 0.002 | –
CC(c1cc2ccccc2s1)N(O)C(N)=O (centres unmarked) [Parent drug-6] | 0.001 | 0.001 | 0.001 | 0.003 | –
O=C(O)C(c1ccc(OCc2ccc3ccccc3n2)cc1)C1CCCC1 (centres unmarked) [Parent drug-5] | 0.001 | 0.001 | 0.001 | 0.002 | –
CCCc1c(OCCCS(=O)(=O)c2ccc(C(=O)CCC(=O)OCC3CCCN3)cc2)ccc(C(C)=O)c1O.Cl (centres unmarked) [Example 19] | 0.50 | 1.02 | 2.18 | 4.48 | –
CC(C)Cc1ccc(C(C)C(=O)O)cc1 (centres unmarked) [Ibuprofen, reference compound] | – | – | – | – | anti-inflammatory activity (in words) [2]: did not show any anti-inflammatory activity; body temperature (Mean) ([3]; T = 0 min (2 hours after LPS challenge), group C, topical, 100 mg/kg, 7% in 70% ethanol): 38.18; body temperature (Mean) ([3]; T = 90 min, group B, oral, 100 mg/kg): 38.01; body temperature (Mean) ([3]; T = 90 min, group C, topical, 100 mg/kg, 7% in 70% ethanol): 38.26; body temperature (Mean) ([3]; T = 180 min, group B, oral, 100 mg/kg): 37.34; body temperature (Mean) ([3]; T = 180 min, group C, topical, 100 mg/kg, 7% in 70% ethanol): 38.27; body temperature (Mean) ([3]; T = 270 min, group B, oral, 100 mg/kg): 37.02; body temperature (Mean) ([3]; T = 270 min, group C, topical, 100 mg/kg, 7% in 70% ethanol): 37.98; antipyretic activity (in words) ([3]; topical, 100 mg/kg): did not show any antipyretic activity
CC(C(=O)OCC1CCCN1)c1ccc(-c2ccccc2)c(F)c1.Cl (centres unmarked) [Example 15, (pyrrolidin-2-yl)methyl 2-(2-fluorobiphenyl-4-yl) propanoate hydrochloride] | – | – | – | – | body temperature (Mean) ([3]; T = 0 min (2 hours after LPS challenge), transdermal, 20 mg/kg): 38.30; body temperature (Mean) ([3]; T = 90 min, transdermal, 20 mg/kg): 37.37; body temperature (Mean) ([3]; T = 180 min, transdermal, 20 mg/kg): 36.78; body temperature (Mean) ([3]; T = 270 min, transdermal, 20 mg/kg): 36.65; survival ([4]; group 2, low dose 25.0 mg/kg): 40%; survival ([4]; group 3, mid dose 50.0 mg/kg): 50%; survival ([4]; group 4, high dose 100.0 mg/kg): 60%
CCCc1c(OCCCS(=O)(=O)c2ccc(C(=O)CCC(=O)O)cc2)ccc(C(C)=O)c1O [Parent drug-1] | 0.000 | 0.001 | 0.001 | 0.002 | –
CC(C(=O)OCC1CCCN1)c1ccc(C(=O)c2cccs2)cc1.Cl (stereo not drawn) [Example 33, (pyrrolidin-2-yl)methyl α-methyl-4-(2-thienylcarbonyl)benzeneacetate hydrochloride] | – | – | – | – | survival ([5]; group 5, low dose 24.9 mg/kg): 60%; survival ([5]; group 6, mid dose 49.8 mg/kg): 50%; survival ([5]; group 7, high dose 99.6 mg/kg): 40%
O=C(O)Cc1ccccc1Nc1c(Cl)cccc1Cl [Parent drug-8] | 0.000 | 0.001 | 0.002 | 0.003 | –
CC(=O)O.CCN(CC)CCOC(=O)CC1=C(C)/C(=C/c2ccc([S+](C)[O-])cc2)c2ccc(F)cc21 (centres unmarked) [Example 8] | – | – | – | – | survival ([4]; group 5, low dose 25.5 mg/kg): 60%; survival ([4]; group 6, mid dose 50.9 mg/kg): 70%; survival ([4]; group 7, high dose 101.9 mg/kg): 50%
Cl.O=C(OCC1CCCN1)C(c1ccc(OCc2ccc3ccccc3n2)cc1)C1CCCC1 (centres unmarked) [Example 6, (pyrrolidin-2-yl)methyl 2-cyclopentyl-2-[4-(quinolin-2-ylmethoxy)phenyl]acetate hydrochloride] | 0.52 | 1.03 | 2.10 | 4.19 | –
CN(C)C(=O)CCSC(SCCC(=O)OCC1CCCN1)c1cccc(/C=C/c2ccc3ccc(Cl)cc3n2)c1.Cl (centres unmarked) [Example 7, (pyrrolidin-2-yl)methyl 3-[[3-[(E)-2-(7-chloroquinolin-2-yl)ethenyl]phenyl]-[3-(dimethylamino)-3-oxopropyl]sulfanylmethyl]sulfanylpropanoate hydrochloride] | 0.46 | 1.01 | 2.09 | 4.29 | –
CCN(CC)CCOC(=O)CC1(CS[C@H](CCc2ccccc2C(C)(C)O)c2cccc(C=Cc3ccc4ccc(Cl)cc4n3)c2)CC1.Cl [Example 3] | 0.36 | 0.78 | 1.77 | 3.87 | –
Cl.O=C(OCC1CCCN1)c1cc(-c2ccc(F)cc2F)ccc1O (centres unmarked) [Example 27, (pyrrolidin-2-yl)methyl 5-(2,4-difluorophenyl) salicylate hydrochloride] | – | – | – | – | survival ([6]; group 2, low dose 25.0 mg/kg): 30%; survival ([6]; group 3, mid dose 49.9 mg/kg): 50%; survival ([6]; group 4, high dose 99.8 mg/kg): 60%
Cc1cccc(Nc2ccccc2C(=O)OCC2CCCN2)c1C.Cl (centres unmarked) [Example 17, (pyrrolidin-2-yl)methyl 2-[(2,3-dimethylphenyl)amino]benzoate hydrochloride] | – | – | – | – | survival ([5]; group 2, low dose 25.0 mg/kg): 30%; survival ([5]; group 3, mid dose 50.1 mg/kg): 50%; survival ([5]; group 4, high dose 100.1 mg/kg): 50%
CC(=O)Oc1ccc(-c2ccc(F)cc2F)cc1C(=O)OCC1CCCN1.Cl (centres unmarked) [Example 28, (pyrrolidin-2-yl)methyl 5-(2,4-difluorophenyl) acetylsalicylate hydrochloride] | – | – | – | – | survival ([6]; group 5, low dose 24.7 mg/kg): 40%; survival ([6]; group 6, mid dose 49.4 mg/kg): 60%; survival ([6]; group 7, high dose 98.7 mg/kg): 70%
